Reference: US8158628B2, “Sulfonylated 1,2,3,4-tetrahydropyrrolo[1,2-a]pyrazine compounds and their use as pharmaceuticals” (Gruenenthal GmbH, priority 2009, dated 2012)

Biological target: T1, B1R of the rat (Rattus norvegicus, UniProt P97583)
T1 construct: expressed in transfected cells; host or cells: CHO K1 cells (Chinese hamster ovary), stably transfected
T1 sequence (P97583 1-337): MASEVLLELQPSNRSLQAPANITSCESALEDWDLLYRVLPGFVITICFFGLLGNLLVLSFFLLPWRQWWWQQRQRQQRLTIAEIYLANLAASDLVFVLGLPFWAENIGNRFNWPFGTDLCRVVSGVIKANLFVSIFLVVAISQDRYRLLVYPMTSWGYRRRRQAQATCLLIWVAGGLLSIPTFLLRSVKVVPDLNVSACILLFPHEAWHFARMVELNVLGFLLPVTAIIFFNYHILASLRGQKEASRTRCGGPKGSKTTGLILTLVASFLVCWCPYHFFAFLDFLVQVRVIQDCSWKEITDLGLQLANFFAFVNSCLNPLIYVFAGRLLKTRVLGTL
Test: FLIPR Ca2+ functional assay, B1R antagonism, rat B1R in CHO K1 cells
Type: cell-based
Details: test substance 10 μM; rB1R CHO K1 cells; agonist Des-Arg9 bradykinin at EC80; % of maximum achievable inhibition
In short: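 Stably transfected CHO K1 cells loaded with Fluo-4; Ca2+ fluorescence read on FLIPR (ex 488/em 540 nm). Compound preincubated 10-20 min, then agonist at EC80: Lys-Des-Arg9 bradykinin (human) or Des-Arg9 bradykinin (rat). % inhibition vs maximal inhibition; IC50 from concentration series, n=2-3, N>=2.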

**Q.** `Cc1cccc(Cl)c1S(=O)(=O)N1CCn2cccc2C1CC(=O)NCCN1CCCC1` (stereo not drawn) [Example 153, 2-[2-[(2-Chloro-6-methyl-phenyl)sulfonyl]-1,2,3,4-tetrahydro-pyrrolo[1,2-a]pyrazin-1-yl]-N-(2-pyrrolidin-1-yl-ethyl)-acetamide] was tested. Which inhibition at 10 µM did it give?
**A.** 15.8%

**Q.** Which inhibition at 10 µM does the source give for `COc1cc(C)c(S(=O)(=O)N2CCn3cccc3C2CC(=O)N2CCN(c3ccccc3)CC2)c(C)c1` (stereo not drawn) [Example 145, 2-[2-[(4-Methoxy-2,6-dimethyl-phenyl)sulfonyl]-1,2,3,4-tetrahydro-pyrrolo[1,2-a]pyrazin-1-yl]-1-(4-phenyl-piperazin-1-yl)-ethanone] here?
**A.** 57.7%

**Q.** Which inhibition at 10 µM does the source give for `O=C(CC1c2cccn2CCN1S(=O)(=O)c1ccccc1)N1CCC(c2ccccc2)CC1` (stereo not drawn) [Example 268, 2-[2-(Benzenesulfonyl)-1,2,3,4-tetrahydro-pyrrolo[1,2-a]pyrazin-1-yl]-1-(4-phenyl-piperidin-1-yl)-ethanone] here?
**A.** 28%

**Q.** How did the inhibition at 10 µM turn out when `N#Cc1cccnc1N1CCCN(C(=O)CC2c3cccn3CCN2S(=O)(=O)c2ccccc2)CC1` (stereo not drawn) [Example 181, 2-[4-[2-[2-(Benzenesulfonyl)-1,2,3,4-tetrahydro-pyrrolo[1,2-a]pyrazin-1-yl]-acetyl]-[1,4]diazepan-1-yl]-pyridine-3-carbonitrile] was run?
**A.** 33.9%

**Q.** Which inhibition at 10 µM does the source give for `Cc1ccc2[nH]c(C3CCN(C(=O)CC4c5cccn5CCN4S(=O)(=O)c4cccc(C(F)(F)F)c4)CC3)nc2c1` (stereo not drawn) [Example 189, 1-[4-(5-Methyl-1H-benzoimidazol-2-yl)-piperidin-1-yl]-2-[2-[[3-(trifluoromethyl)phenyl]sulfonyl]-1,2,3,4-tetrahydro-pyrrolo[1,2-a]pyrazin-1-yl]-ethanone] here?
**A.** -1.61%

**Q.** With `COc1cc(C)c(S(=O)(=O)N2CCn3cccc3C2CC(=O)N2CCN(c3ccc(Cl)c(Cl)c3)CC2)c(C)c1` (stereo not drawn) [Example 238, 1-[4-(3,4-Dichlorophenyl)-piperazin-1-yl]-2-[2-[(4-methoxy-2,6-dimethyl-phenyl)sulfonyl]-1,2,3,4-tetrahydro-pyrrolo[1,2-a]pyrazin-1-yl]-ethanone] as the molecule, how does the inhibition at 10 µM read?
**A.** 17.6%

**Q.** `O=C(CC1c2cccn2CCN1S(=O)(=O)c1ccccc1)N1CCN(Cc2ccccc2F)CC1` (stereo not drawn) [Example 234, 2-[2-(Benzenesulfonyl)-1,2,3,4-tetrahydro-pyrrolo[1,2-a]pyrazin-1-yl]-1-[4-[(2-fluorophenyl)-methyl]-piperazin-1-yl]-ethanone] was tested. Which inhibition at 10 µM did it give?
**A.** 17.3%

**Q.** With `CN1CCN(C(=O)CC2c3cccn3CCN2S(=O)(=O)c2ccccc2)C(c2ccccc2)C1` (stereo not drawn) [Example 267, 2-[2-(Benzenesulfonyl)-1,2,3,4-tetrahydro-pyrrolo[1,2-a]pyrazin-1-yl]-1-(4-methyl-2-phenyl-piperazin-1-yl)-ethanone] as the molecule, how does the inhibition at 10 µM read?
**A.** -4.75%

**Q.** Which inhibition at 10 µM does the source give for `O=C(CC1c2cccn2CCN1S(=O)(=O)c1cccc(C(F)(F)F)c1)N1CCN(c2ccccn2)CC1` (stereo not drawn) [Example 190, 1-(4-Pyridin-2-yl-piperazin-1-yl)-2-[2-[[3-(trifluoromethyl)phenyl]sulfonyl]-1,2,3,4-tetrahydro-pyrrolo[1,2-a]pyrazin-1-yl]-ethanone] here?
**A.** 20.4%

**Q.** `O=C(CC1c2cccn2CCN1S(=O)(=O)c1cccc(C(F)(F)F)c1)N1CCC(N2CCCCC2)CC1` (stereo not drawn) [Example 188, 1-(4-Piperidin-1-yl-piperidin-1-yl)-2-[2-[[3-(trifluoromethyl)phenyl]sulfonyl]-1,2,3,4-tetrahydro-pyrrolo[1,2-a]pyrazin-1-yl]-ethanone] was tested. Which inhibition at 10 µM did it give?
**A.** -2.25%

**Q.** Which inhibition at 10 µM does the source give for `O=C(CC1c2cccn2CCN1S(=O)(=O)c1ccccc1)N1CCC(N2CCOCC2)CC1` (stereo not drawn) [Example 176, 2-[2-(Benzenesulfonyl)-1,2,3,4-tetrahydro-pyrrolo[1,2-a]pyrazin-1-yl]-1-(4-morpholin-4-yl-piperidin-1-yl)-ethanone] here?
**A.** 26.7%

**Q.** For `COc1cc(C)c(S(=O)(=O)N2CCn3cccc3C2CC(=O)NCCCN2C(C)CCCC2C)c(C)c1` (stereo not drawn) [Example 143, N-[3-(2,6-Dimethyl-piperidin-1-yl)-propyl]-2-[2-[(4-methoxy-2,6-dimethyl-phenyl)sulfonyl]-1,2,3,4-tetrahydro-pyrrolo[1,2-a]pyrazin-1-yl]-acetamide], which inhibition at 10 µM is on record?
**A.** 37.4%
